The test system of experiment [1] is Plasmodium falciparum strain 3D7. Briefly: Growth inhibition assay with asexual Plasmodium falciparum (HRP2 ELISA). Type of experiment: cell-based. The conditions noted are these: for Fold differences, 6 day-assays: IC50 3D7 versus A1-H.1, 6 days; for Fold differences, 3 day-assays: IC50 3D7 versus A1-H.1, 3 days. In general terms: An ELISA detects its analyte on a solid surface through an enzyme-linked reagent.

Experiment [2] relates to mature (stage IV-V) Plasmodium falciparum gametocytes (NF54). The experiment can be described thus: In vitro activity against mature gametocytes (ATP production, BacTiterGlo). Type of experiment: cell-based. The conditions noted are these: 48 h.
The subject of another experiment is HepG2 cells. The experiment can be described thus: Cytotoxicity, neutral red assay. The conditions noted are these: for IC50: read-out: IC50 (μM) in HepG2 cells; for SI 3D7: selectivity index HepG2 versus P. falciparum 3D7; for SI A1-H.1: selectivity index HepG2 versus P. knowlesi A1-H.1. It is filed as cell-based, human.
Experiment [3] concerns Plasmodium falciparum Dd2 (multidrug-resistant). The experiment can be described thus: Growth inhibition assay, resistant strain Dd2. It is filed as cell-based. The conditions noted are these: read-out: IC50, Dd2.
Experiment [4] relates to Plasmodium falciparum K1 (multidrug-resistant). The experiment can be described thus: Growth inhibition assay, resistant strain K1. It is filed as cell-based. The conditions noted are these: read-out: IC50, K1.
In experiment [5] the test system is Plasmodium falciparum 7G8 (chloroquine resistant). Briefly: Growth inhibition assay, resistant strain 7G8. Type of experiment: cell-based. The conditions noted are these: read-out: IC50, 7G8.
Experiment [6] concerns Plasmodium falciparum strain 3D7. Briefly: Apicoplast as target: growth inhibition with and without IPP supplementation. The conditions noted are these: 3D7, 6 days. It is filed as cell-based.
Experiment [7] shares this test system. The experiment can be described thus: Ionophoric activity assay: growth inhibition with KCl or MgCl2 supplementation. It is filed as cell-based.
For the next experiment, the system named is Mycobacterium bovis. The conditions noted are these: cited from earlier work.
The subject of experiment [8] is Plasmodium falciparum 3D7 and Dd2 asexual stages. Briefly: Thin blood smear microscopy (Giemsa). The conditions noted are these: 1 nM for 6 h.
Procedure: Then, thin blood smears were prepared, fixed in 100% methanol for 10 seconds, and stained with Giemsa (Merck) solution (5%) for 20 minutes. The slides were washed and observed under a Leica DMBL microscope, and pictures were taken using a ProgRes C10 camera and software (Jenoptik), at 100× magnification.
Setting [9] is: Plasmodium falciparum, 72 h, P. falciparum 3D7, 3 days of incubation, read-out: IC50, 3 day-assays, 3D7.
Where [10] appears, read: Plasmodium falciparum, 144 h, P. falciparum 3D7, 6 days of incubation, read-out: IC50, 6 day-assays, 3D7.
[11] abbreviates: Plasmodium falciparum, NF54, stage IV and V gametocytes.
[12] abbreviates: Plasmodium falciparum, 3D7, 72 h, read-out: IC50, 3 day-assays, 3D7.
[13] abbreviates: Plasmodium falciparum, 3D7, 144 h, read-out: IC50, 6 day-assays, 3D7.

Structures can show the parent of a compound that is named as a salt. Where two headings read alike, the source gives them in different places. Some results are limits rather than exact numbers.

Broadly, the IC50 is the concentration that inhibits the measured activity by half.

As to `CN(C)[C@@H]1C(O)=C(C(N)=O)C(=O)[C@@]2(O)C(O)=C3C(=O)c4c(O)ccc(Cl)c4[C@@H](O)[C@H]3C[C@@H]12` [Demeclocycline], the “Fold differences, 6 day-assays” value in [1] is on record as 1.06. Besides, the IC50 in [1] (setting [9]) was more than 18 µM; in [1] (setting [10]), 0.41 ± 0.165 µM.
Compound `CN(C)c1ccc2nc3ccc(=[N+](C)C)cc-3sc2c1` [methylene blue, Methylene Blue] returned an IC50 in experiment [2] (setting [11]) of 0.284 ± 0.035 µM.
On to `CO[C@H]1C[C@H](O[C@H]2[C@H](C)[C@@H](O[C@@H]3O[C@H](C)C[C@H](N(C)C)[C@H]3OC(C)=O)[C@@H](C)C[C@@]3(CO3)C(=O)[C@H](C)[C@@H](OC(C)=O)[C@@H](C)[C@@H](C)OC(=O)[C@@H]2C)O[C@@H](C)[C@@H]1OC(C)=O` [Troleandomycin], for which the IC50 in experiment [1] (setting [9]) and in experiment [1] (setting [10]) was more than 18 µM throughout.
Turning to `CO[C@@H]1[C@@H](O[C@@H]2O[C@H](C)[C@@H](O[C@H]3C[C@@](C)(O)[C@@H](OC(=O)CC(C)C)[C@H](C)O3)[C@H](N(C)C)[C@H]2O)[C@@H](CC=O)C[C@@H](C)[C@@H](O)/C=C/C=C/C[C@@H](C)OC(=O)C[C@H]1OC(C)=O` [Josamycin], the “Fold differences, 6 day-assays” value in [1] is 2.3. Besides, the IC50 in experiment [1] (setting [9]) is more than 18 µM; in [1] (setting [10]), 0.388 ± 0.185 µM.
`CN(C)[C@@H]1C(O)=C(C(=O)NCNCCCC[C@H](N)C(=O)O)C(=O)[C@@]2(O)C(O)=C3C(=O)c4c(O)cccc4[C@@](C)(O)[C@H]3C[C@@H]12` [Lymecycline]: in [1], the “Fold differences, 6 day-assays” value is on record as 1. The IC50 in [1] (setting [12]) is more than 18 µM; in [1] (setting [13]), 1.12 ± 0.247 µM.
`CN(C)c1cc(CNCC(C)(C)C)c(O)c2c1C[C@H]1C[C@H]3[C@H](N(C)C)C(O)=C(C(N)=O)C(=O)[C@@]3(O)C(O)=C1C2=O` [Omadacycline]: in [1], the “Fold differences, 3 day-assays” value is recorded as 7.3. The “Fold differences, 6 day-assays” value in experiment [1] is on record as 0.86. In addition, the figures for the IC50 in experiment [1] (setting [9]) and in experiment [1] (setting [10]) were 8.44 ± 0.618 µM and 0.248 ± 0.109 µM, respectively.
`CN(C)[C@@H]1C(O)=C(C(N)=O)C(=O)[C@@]2(O)C(O)=C3C(=O)c4c(O)ccc(Cl)c4[C@@](C)(O)[C@H]3C[C@@H]12` [Chlortetracycline]: the IC50 in experiment [1] (setting [9]) and in experiment [1] (setting [10]) was more than 18 µM each time.
As to `CC(C)[C@@H](N)C(=O)O[C@H](C)[C@@H]1C/C=C\CC[C@H](O)C(C)(C)[C@@H]2CC[C@@H](C)[C@@]3(O2)O[B-]24O[C@@H](C(=O)O1)[C@]1(O[C@@H](CC[C@H]1C)C(C)(C)[C@H](O)CCC[C@@H]1C[C@H](OC(=O)[C@@H]3O2)[C@@H](C)O1)O4.[H+]` [Boromycin], the IC50 in experiment [1] (3D7, 3 days of incubation, comparator for resistant strains, read-out: IC50, 3D7 (Table 4)) is 0.0009 ± 0.0001 µM; in [1] (P. falciparum 3D7, 3 days of incubation, read-out: IC50, 3 day-assays, 3D7), 0.0009 ± 0.0001 µM; with HepG2 cells (HepG2, 24 hours drug incubation, neutral red), 1250 ± 230 µM; in experiment [3] (Dd2, 3 days of incubation), 0.0006 ± 0.0004 µM; in [4] (K1, 3 days of incubation) it was 0.0007 ± 0.0001 µM; in experiment [5] (7G8, 3 days of incubation), 0.0004 ± 7e-05 µM. In addition, the IC50 is 0.0085 ± 0.0036 µM in experiment [2] (stage IV and V gametocytes); 0.0014 µM in experiment [6] (supplemented with IPP, read-out: IC50, IPP-supplemented); 0.0009 µM in [6] (without IPP, read-out: IC50, control without IPP); 2.1 ± 0.2 nM in experiment [7] (3D7, 3 days, KCl 220 μg/ml, read-out: IC50, KCl supplemented); 0.2 nM in experiment [7] (3D7, 3 days, MgCl2 220 μg/ml, read-out: IC50, MgCl2 supplemented); 0.7 ± 0.1 nM in experiment [7] (3D7, 3 days, no supplementation, read-out: IC50 (in nM) control). Moreover, in experiment [1], the “Fold differences, 3 day-assays” value turned out to be 0.15. Besides, the “Fold differences, 6 day-assays” value in [1] was 0.29. The “selectivity index (SI)” value with HepG2 cells (HepG2 versus Plasmodium) is listed as “higher than 200,000”. Further, the “SI 3D7” value in the experiment with HepG2 cells is 1,388,000. Moreover, the “SI A1-H.1” value in the experiment with HepG2 cells is on record as 211,864. Besides, the “increase of IC50 by supplementation of KCl” value in experiment [7] (KCl at 220 μg/mL versus control) is on record as 3 fold. Further, the “boromycin activity with external KCl” value with Mycobacterium bovis (KCl 20 mg/mL) is 10%. Also, in the experiment with Mycobacterium bovis (before addition of KCl), the “boromycin activity without added KCl” value is listed as 50%. Besides, the “parasite morphology, strain 3D7” value in [8] (3D7) is recorded as “pyknotic appearance”. Also, the “parasite morphology, strain Dd2” value in [8] (Dd2) is given as “pyknotic appearance”.
As for `C[C@H]1c2cccc(O)c2C(=O)C2=C(O)[C@]3(O)C(=O)C(C(N)=O)=C(O)[C@@H](N(C)C)[C@@H]3[C@@H](O)[C@@H]21` [Doxycycline, Doxycycline Hyclate], the “Fold differences, 3 day-assays” value in [1] was 5.1. Also, the “Fold differences, 6 day-assays” value in [1] came out at 0.58. Further, the IC50 came out at 9.58 ± 2.76 µM in experiment [1] (setting [9]) and 0.386 ± 0.292 µM in experiment [1] (setting [10]).
Consider `C=C1c2c(Cl)ccc(O)c2C(=O)C2=C(O)[C@]3(O)C(=O)C(C(N)=O)=C(O)[C@@H](N(C)C)[C@@H]3[C@@H](O)[C@H]12` [Meclocycline], for which the “Fold differences, 6 day-assays” value in experiment [1] came to 0.19. In addition, the IC50 in experiment [1] (setting [12]) is more than 18 µM; in experiment [1] (setting [13]), 0.292 ± 0.041 µM.
For `CN(C)[C@@H]1C(O)=C(C(N)=O)C(=O)[C@@]2(O)C(O)=C3C(=O)c4c(O)c(NC(=O)CN5CCCC5)cc(F)c4C[C@H]3C[C@@H]12` [Eravacycline], in [1], the “Fold differences, 3 day-assays” value is 1.08 and the “Fold differences, 6 day-assays” value is recorded as 0.4. Also, in experiment [1] (setting [12]), the IC50 was found to be 2.51 ± 0.55 µM. For the same compound, the IC50 in [1] (setting [13]) amounted to 0.0051 µM.
As to `CN(C)c1ccc(O)c2c1C[C@H]1C[C@H]3[C@H](N(C)C)C(O)=C(C(N)=O)C(=O)[C@@]3(O)C(O)=C1C2=O` [Minocycline, Minocycline hydrochloride], in [1], the “Fold differences, 3 day-assays” value amounted to 3 and the “Fold differences, 6 day-assays” value stood at 0.56. In [1] (setting [9]), the IC50 was 9.39 ± 4.35 µM. In addition, the IC50 in [1] (setting [10]) amounted to 0.0835 ± 0.025 µM.
In the case of `C=C1c2cccc(O)c2C(=O)C2=C(O)[C@]3(O)C(=O)C(C(N)=O)=C(O)[C@@H](N(C)C)[C@@H]3[C@@H](O)[C@H]12` [Methacycline], the “Fold differences, 6 day-assays” value in [1] turned out to be 1.2. Further, the IC50 in experiment [1] (setting [9]) was more than 18 µM; in [1] (setting [10]) it was 3.72 µM.
In the case of `CON(C)Cc1ccc(O)c2c1C[C@H]1C[C@H]3[C@H](N(C)C)C(O)=C(C(N)=O)C(=O)[C@@]3(O)C(O)=C1C2=O` [Sarecycline, Sarecycline hydrochloride], in [1], the “Fold differences, 3 day-assays” value was 7.1 and the “Fold differences, 6 day-assays” value stood at 0.26. In addition, the half-maximal inhibitory concentration (IC50) in experiment [1] (setting [12]) amounted to 13.4 ± 1.05 µM. The IC50 in [1] (setting [13]) turned out to be 0.244 ± 0.136 µM.
In the case of `CO[C@H]1C[C@H](O[C@H]2[C@H](C)[C@@H](O[C@@H]3O[C@H](C)C[C@H](N(C)C)[C@H]3O)[C@@H](C)C[C@@]3(CO3)C(=O)[C@H](C)[C@@H](O)[C@@H](C)[C@@H](C)OC(=O)[C@@H]2C)O[C@@H](C)[C@@H]1O` [Oleandomycin], the IC50 in experiment [1] (setting [9]) is 8.19 ± 3.85 µM; in experiment [1] (setting [10]), more than 18 µM.
On to `CC[C@H](C)[C@H](NC(=O)[C@H]([C@@H](C)CC)N(C)C(C)=O)C(=O)N[C@H](C(=O)N[C@@H](CC(C)C)C(=O)[C@@]1(C)CO1)[C@@H](C)O` [epoxomicin], for which, in [2] (setting [11]), half-maximal inhibition (IC50) required 0.0152 ± 0.0034 µM.
For `CCN(CC)CCCC(C)Nc1ccnc2cc(Cl)ccc12` (centres unmarked) [Chloroquine, Chloroquine diphosphate], in [1], the “Fold differences, 3 day-assays” value is on record as 0.57. For the same compound, in [1], the “Fold differences, 6 day-assays” value worked out at 0.61. For the same compound, the IC50 in [1] (Plasmodium falciparum, 3D7, 72 h, read-out: IC50, 3D7 (Table 4)) stood at 0.0084 ± 0.0049 µM; in [1] (setting [12]) it was 0.0084 ± 0.0049 µM; in [1] (setting [13]), 0.0104 ± 0.0048 µM; in the experiment on HepG2 cells (Homo sapiens, HepG2, 24 h), 153 µM; in [3] (Plasmodium falciparum, DD2, 72 h), 0.302 ± 0.119 µM; in experiment [4] (Plasmodium falciparum, K1, 72 h) it was 0.401 ± 0.0283 µM. The IC50 was 0.304 ± 0.0182 µM in experiment [5] (Plasmodium falciparum, 7G8, 72 h); 12 ± 0.8 nM in [7] (Plasmodium falciparum, 3D7, 72 h, read-out: IC50 (in nM) control); 11.6 ± 1.4 nM in experiment [7] (Plasmodium falciparum, 3D7, 72 h, read-out: IC50, KCl supplemented); 2.2 nM in experiment [7] (Plasmodium falciparum, 3D7, 72 h, read-out: IC50, MgCl2 supplemented). In addition, the “SI 3D7” value in the experiment on HepG2 cells was 18,214. The “SI A1-H.1” value in the experiment with HepG2 cells is 10,551. In addition, the “increase of IC50 by supplementation of KCl” value in experiment [7] is “no difference was observed”.
